Assay results taken from patent EP1824830B1, “RADIOLABELLED QUINOLINE-BASED LIGANDS FOR THE 5-HT6 RECEPTOR FUNCTIONALITY” (GLAXO GROUP LIMITED, priority 2004, dated 2006).
Each block holds one molecule with its values, some of them ahead of it.

What was measured:
α1B adrenoreceptor = target: T1, α1B adrenoreceptor (Homo sapiens, UniProt P35368); assay: Binding profile
T1 sequence (P35368 1-520): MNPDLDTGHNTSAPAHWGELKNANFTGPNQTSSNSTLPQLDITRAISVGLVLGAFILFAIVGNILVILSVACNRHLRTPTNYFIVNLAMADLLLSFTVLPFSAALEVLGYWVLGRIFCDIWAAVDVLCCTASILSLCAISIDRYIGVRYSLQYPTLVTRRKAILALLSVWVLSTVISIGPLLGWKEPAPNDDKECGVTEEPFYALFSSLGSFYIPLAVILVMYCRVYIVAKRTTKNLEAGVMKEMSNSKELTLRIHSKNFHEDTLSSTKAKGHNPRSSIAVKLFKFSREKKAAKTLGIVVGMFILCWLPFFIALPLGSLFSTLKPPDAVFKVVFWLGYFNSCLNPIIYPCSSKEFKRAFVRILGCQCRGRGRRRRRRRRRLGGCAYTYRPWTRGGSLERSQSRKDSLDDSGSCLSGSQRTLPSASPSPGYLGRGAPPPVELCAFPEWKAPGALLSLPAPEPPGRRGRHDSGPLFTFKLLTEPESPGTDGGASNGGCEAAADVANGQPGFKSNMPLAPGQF
Source text: (§1) Table 1. Binding Profile (pKi values) of GSK215083

5-HT2C = target: T2, 5-HT2C (Homo sapiens, UniProt P28335); assay: Binding profile
T2 sequence (P28335 33-458): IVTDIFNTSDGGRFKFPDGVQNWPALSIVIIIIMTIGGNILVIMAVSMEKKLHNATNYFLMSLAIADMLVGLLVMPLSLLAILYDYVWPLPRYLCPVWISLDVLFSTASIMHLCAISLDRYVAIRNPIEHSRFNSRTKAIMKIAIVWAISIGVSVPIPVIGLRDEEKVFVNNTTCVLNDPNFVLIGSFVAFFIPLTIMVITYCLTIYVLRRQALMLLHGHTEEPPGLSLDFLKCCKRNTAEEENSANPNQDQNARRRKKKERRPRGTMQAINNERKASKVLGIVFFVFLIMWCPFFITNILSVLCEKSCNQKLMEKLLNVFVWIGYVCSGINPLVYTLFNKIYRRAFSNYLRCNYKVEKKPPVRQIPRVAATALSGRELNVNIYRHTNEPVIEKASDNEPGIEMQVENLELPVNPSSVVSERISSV
Source text: as §1

5-HT2B = 5-HT2B (Homo sapiens, UniProt P41595); assay: Binding profile
Chain of 5-HT2B (P41595 whole entry, species assumed): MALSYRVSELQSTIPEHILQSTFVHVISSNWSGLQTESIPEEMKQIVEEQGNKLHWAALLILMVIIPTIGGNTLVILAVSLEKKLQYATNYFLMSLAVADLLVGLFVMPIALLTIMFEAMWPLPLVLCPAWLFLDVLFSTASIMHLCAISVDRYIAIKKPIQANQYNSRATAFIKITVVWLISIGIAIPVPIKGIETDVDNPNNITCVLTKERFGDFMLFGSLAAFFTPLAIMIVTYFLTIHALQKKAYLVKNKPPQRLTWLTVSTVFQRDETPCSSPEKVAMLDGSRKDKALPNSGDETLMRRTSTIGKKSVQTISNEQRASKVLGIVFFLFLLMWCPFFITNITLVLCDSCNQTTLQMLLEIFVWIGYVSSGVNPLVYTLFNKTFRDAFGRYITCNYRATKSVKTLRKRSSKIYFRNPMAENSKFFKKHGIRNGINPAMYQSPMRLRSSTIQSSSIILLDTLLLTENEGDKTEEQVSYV
Source text: as §1

Dopamine D3 = Dopamine D3 (Homo sapiens, UniProt P35462); assay: Binding profile
Chain of Dopamine D3 (P35462 whole entry): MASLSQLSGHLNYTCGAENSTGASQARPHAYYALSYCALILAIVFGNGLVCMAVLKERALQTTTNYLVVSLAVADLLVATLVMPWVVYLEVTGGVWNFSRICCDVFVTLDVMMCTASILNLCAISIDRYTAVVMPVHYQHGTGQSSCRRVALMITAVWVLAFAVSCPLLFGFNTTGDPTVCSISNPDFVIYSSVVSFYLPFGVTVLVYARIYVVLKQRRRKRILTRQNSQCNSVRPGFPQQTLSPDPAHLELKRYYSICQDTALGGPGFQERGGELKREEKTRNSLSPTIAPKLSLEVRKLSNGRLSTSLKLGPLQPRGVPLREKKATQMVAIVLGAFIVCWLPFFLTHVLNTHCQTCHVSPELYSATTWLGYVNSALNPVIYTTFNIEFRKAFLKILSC
Source text: as §1

5-HT1A = target: T3, 5-HT1A (Homo sapiens, UniProt P08908); assay: Binding profile
T3 sequence (P08908 1-422): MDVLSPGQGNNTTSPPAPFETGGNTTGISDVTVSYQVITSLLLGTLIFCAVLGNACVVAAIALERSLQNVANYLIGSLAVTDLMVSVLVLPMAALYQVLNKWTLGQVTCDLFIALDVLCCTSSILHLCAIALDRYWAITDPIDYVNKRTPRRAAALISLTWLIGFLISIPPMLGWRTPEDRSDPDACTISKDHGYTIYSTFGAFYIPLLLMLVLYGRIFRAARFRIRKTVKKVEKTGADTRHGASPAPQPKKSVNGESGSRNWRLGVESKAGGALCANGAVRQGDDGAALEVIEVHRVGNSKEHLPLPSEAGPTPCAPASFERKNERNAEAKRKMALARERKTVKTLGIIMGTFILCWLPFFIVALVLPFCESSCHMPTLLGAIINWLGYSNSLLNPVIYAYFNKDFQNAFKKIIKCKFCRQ
Source text: as §1

Dopamine D2 = Dopamine D2 (Homo sapiens, UniProt P14416); assay: Binding profile
Chain of Dopamine D2 (P14416 whole entry): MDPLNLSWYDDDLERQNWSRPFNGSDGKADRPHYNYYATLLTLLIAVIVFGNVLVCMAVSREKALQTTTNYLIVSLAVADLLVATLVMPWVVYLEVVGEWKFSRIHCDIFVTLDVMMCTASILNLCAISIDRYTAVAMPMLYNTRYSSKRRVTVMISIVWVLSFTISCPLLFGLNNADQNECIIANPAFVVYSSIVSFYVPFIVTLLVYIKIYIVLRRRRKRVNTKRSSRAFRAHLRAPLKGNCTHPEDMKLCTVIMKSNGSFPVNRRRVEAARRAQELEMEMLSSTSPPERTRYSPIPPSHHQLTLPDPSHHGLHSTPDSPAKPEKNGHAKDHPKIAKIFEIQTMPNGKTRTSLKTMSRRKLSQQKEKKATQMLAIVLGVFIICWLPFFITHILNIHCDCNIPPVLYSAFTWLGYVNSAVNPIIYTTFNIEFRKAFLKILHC
Source text: as §1

5-HT1B = 5-HT1B (Homo sapiens, UniProt P28222); assay: Binding profile
Chain of 5-HT1B (P28222 whole entry, species assumed): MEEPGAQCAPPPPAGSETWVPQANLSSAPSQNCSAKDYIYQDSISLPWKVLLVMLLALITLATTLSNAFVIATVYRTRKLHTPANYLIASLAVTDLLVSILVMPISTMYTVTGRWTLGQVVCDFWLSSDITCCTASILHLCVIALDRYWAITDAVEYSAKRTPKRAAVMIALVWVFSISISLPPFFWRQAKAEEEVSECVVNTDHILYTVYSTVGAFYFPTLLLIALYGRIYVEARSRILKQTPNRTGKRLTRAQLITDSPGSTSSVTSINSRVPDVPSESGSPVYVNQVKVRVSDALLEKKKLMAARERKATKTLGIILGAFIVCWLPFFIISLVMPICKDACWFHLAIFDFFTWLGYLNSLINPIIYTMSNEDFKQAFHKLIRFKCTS
Source text: as §1

5-HT7 = 5-HT7 (Homo sapiens, UniProt P34969); assay: Binding profile
Chain of 5-HT7 (P34969 whole entry, species assumed): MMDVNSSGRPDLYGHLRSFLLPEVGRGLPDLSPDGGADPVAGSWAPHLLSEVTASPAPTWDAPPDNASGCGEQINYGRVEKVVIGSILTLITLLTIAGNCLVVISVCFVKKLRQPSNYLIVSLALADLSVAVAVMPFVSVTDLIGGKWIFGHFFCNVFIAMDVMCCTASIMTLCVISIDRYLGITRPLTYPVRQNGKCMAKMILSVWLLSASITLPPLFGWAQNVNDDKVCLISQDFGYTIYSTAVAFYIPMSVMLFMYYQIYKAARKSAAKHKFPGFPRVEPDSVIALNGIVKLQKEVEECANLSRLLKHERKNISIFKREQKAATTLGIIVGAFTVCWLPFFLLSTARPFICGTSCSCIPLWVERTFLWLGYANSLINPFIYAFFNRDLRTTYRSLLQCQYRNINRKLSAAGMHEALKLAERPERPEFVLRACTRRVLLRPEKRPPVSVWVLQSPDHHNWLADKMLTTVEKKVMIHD
Source text: as §1

5-HT1D = 5-HT1D (Homo sapiens, UniProt P28221); assay: Binding profile
Chain of 5-HT1D (P28221 whole entry, species assumed): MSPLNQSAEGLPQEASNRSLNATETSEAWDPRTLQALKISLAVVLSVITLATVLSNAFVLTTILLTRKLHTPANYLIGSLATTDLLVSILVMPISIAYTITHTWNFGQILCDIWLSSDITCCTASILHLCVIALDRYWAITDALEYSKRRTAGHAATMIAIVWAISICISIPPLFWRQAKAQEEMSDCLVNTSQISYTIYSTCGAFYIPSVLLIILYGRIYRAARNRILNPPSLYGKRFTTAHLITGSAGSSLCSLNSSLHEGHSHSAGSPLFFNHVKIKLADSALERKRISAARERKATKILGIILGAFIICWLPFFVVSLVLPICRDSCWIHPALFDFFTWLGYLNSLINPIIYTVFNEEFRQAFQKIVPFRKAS
Source text: as §1

[1] = target: T4, human recombinant 5-HT6 receptor (Homo sapiens, UniProt P50406); assay: Radioligand binding, competition studies with [^3H]LSD
T4 construct: expressed in transfected cells; host or cells: HeLa
T4 sequence (P50406 whole entry): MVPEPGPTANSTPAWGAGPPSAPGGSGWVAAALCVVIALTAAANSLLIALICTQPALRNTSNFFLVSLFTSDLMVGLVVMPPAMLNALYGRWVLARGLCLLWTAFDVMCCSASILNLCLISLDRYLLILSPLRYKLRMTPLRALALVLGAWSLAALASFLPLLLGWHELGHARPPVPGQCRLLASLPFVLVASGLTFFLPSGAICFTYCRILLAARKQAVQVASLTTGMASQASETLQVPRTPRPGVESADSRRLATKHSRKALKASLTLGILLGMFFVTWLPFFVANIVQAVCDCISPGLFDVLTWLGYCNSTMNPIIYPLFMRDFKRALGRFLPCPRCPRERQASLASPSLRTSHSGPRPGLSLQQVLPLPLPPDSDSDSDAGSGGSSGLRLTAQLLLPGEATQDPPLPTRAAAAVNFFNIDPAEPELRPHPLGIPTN
Source text: as §1

5-HT6 receptors [2] = assay: PET imaging, saturation of 5-HT6 receptors in the brain
5-HT2A = 5-HT2A (Homo sapiens, UniProt P28223); assay: Binding profile
Chain of 5-HT2A (P28223 whole entry, species assumed): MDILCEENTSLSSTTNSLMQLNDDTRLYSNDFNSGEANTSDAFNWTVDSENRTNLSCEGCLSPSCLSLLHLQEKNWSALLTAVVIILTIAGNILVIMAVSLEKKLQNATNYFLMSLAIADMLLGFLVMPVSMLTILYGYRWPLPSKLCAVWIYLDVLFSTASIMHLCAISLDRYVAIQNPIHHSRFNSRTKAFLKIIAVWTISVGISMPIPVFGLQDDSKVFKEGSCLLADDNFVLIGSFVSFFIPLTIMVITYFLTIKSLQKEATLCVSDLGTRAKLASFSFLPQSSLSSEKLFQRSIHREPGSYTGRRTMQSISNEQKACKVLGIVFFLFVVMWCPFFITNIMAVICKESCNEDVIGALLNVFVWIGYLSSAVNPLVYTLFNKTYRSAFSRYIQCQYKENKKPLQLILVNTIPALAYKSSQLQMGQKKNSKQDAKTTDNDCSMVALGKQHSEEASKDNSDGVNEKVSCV

5-HT6 receptors [3] = settings: PET
[4] = 60min post administration of 0.5mg/kg GSK215083 with [^11C]GSK215083
[5] = 60 min post coinjection of [^11C]GSK215083 with 0.005mg/kg of GSK215083
[6] = [^11C]GSK215083 coadministered with 0.05mg/kg of GSK215083
[7] = baseline scan, 60 min post injection of [^11C]GSK215083

- Ki (α1B adrenoreceptor): 977 nM
- Ki (5-HT2C): 17.8 nM
- Ki (5-HT2B): 9.12 nM
- Ki (Dopamine D3): 977 nM
- Ki (5-HT1A): > 7080 nM
- Ki (Dopamine D2): 912 nM
- Ki (5-HT1B): 105 nM
- Ki (5-HT7): > 10000 nM
- Ki (5-HT1D): 69.2 nM
- Ki ([1]; human recombinant 5-HT6 receptor stably expressed in the HeLa cell line, [^3H]LSD as radioligand): 0.151 nM
- Ki (5-HT2A): 0.724 nM
SMILES: CN1CCN(c2cccc3cc(S(=O)(=O)c4cccc(F)c4)cnc23)CC1 [GSK215083, 3-[(3-fluorophenyl)sulfonyl]-8-(4-methyl-1-piperazinyl)quinoline]
- selectivity for the human 5-HT6 receptor ([1]; over other receptors screened to date): selective for the human 5-HT6 receptor over other receptors screened to date
- cortex to cerebellum ratio (5-HT6 receptors [2]; [4]): 1 to 1
- striatum to cerebellum ratio (5-HT6 receptors [2]; [4]): 1.1 to 1
- cortex to cerebellum ratio (5-HT6 receptors [2]; [5]): 1.2 to 1
- striatum to cerebellum ratio (5-HT6 receptors [2]; [5]): 1.5 to 1
- cortex to cerebellum ratio (5-HT6 receptors [2]; [6]): 1.1 to 1
- striatum to cerebellum ratio (5-HT6 receptors [2]; [6]): 1.3 to 1

SMILES: [11CH3]N1CCN(c2cccc3cc(S(=O)(=O)c4cccc(F)c4)cnc23)CC1 [[^11C]GSK215083, [^11C-N-methyl]-3-(3-Fluoro-benzenesulfonyl)-8-(4-methyl-piperazin-1-yl)-quinoline]
- cortex to cerebellum ratio (5-HT6 receptors [2]; [7]): 1.5 to 1
- striatum to cerebellum ratio (5-HT6 receptors [2]; [7]): 2 to 1
- concentration in cerebellum (5-HT6 receptors [3]; pig brain): low
- rank order of regional brain concentrations (5-HT6 receptors [3]; pig brain): striatum>cortical regions>cerebellum
- time of peak regional tissue concentrations post injection (5-HT6 receptors [3]; pig brain, intravenous 1 minute bolus): approximately 20 min
- brain entry (5-HT6 receptors [3]; pig, intravenous 1 minute bolus): readily enters the brain
